Data from US20130123355A1, “Fatty acids and metal ions compositions and uses thereof” (priority 2011, published 2013).

Legend:
[1] = system: Sprague-Dawley rats; test: Forced Swim Test; type: in vivo; conditions: diet, about 15.5 mg/Kg/day elemental lithium, compared with the fatty acid alone or lithium carbonate
From the text: Sprague-Dawley rats are fed diet supplemented with Mg-DHA, Mg Citrate, or DHA. […] Various established parameters of antidepressant activity including reduced immobility time, increased swimming, and increased climbing behavior are quantitated to assess the antidepressant activity.
Sprague-Dawley rats are fed diet supplemented with Mg-DHA-LysoPC, Mg Citrate, or DHA-lysoPC. […] Various established parameters of antidepressant activity including reduced immobility time, increased swimming, and increased climbing behavior are quantitated to assess the antidepressant activity.
Sprague-Dawley rats are fed diet supplemented with Mg-EPA, Mg Citrate, or EPA. […] Various established parameters of antidepressant activity including reduced immobility time, increased swimming, and increased climbing behavior are quantitated to assess the antidepressant activity.
(§1) Sprague-Dawley rats are fed diet supplemented with Zn-DHA, Zinc gluconate, or DHA. On Zn-DHA or Zinc gluconate supplemented diet, rats consume about 1 mg/kg body weight/day of elemental zinc, on a feeding schedule so as to maintain 85% of its free-feeding weight. […] Various established parameters of antidepressant activity including reduced immobility time, increased swimming, and increased climbing behavior are quantitated to assess the antidepressant activity.
as §1, with “Zn-DHA-lysoPC, zinc” for “Zn-DHA, Zinc”, “Zn-DHA-lysoPC” for “Zn-DHA”, “zinc” for “Zinc”
as §1, with “Zn-EPA, zinc” for “Zn-DHA, Zinc”, “EPA.” for “DHA.”, “Zn-EPA” for “Zn-DHA”, “zinc” for “Zinc”
Sprague-Dawley rats are fed diet supplemented with Li-DHA, lithium carbonate, or DHA. […] Various established parameters of antidepressant activity including reduced immobility time, increased swimming, and increased climbing behavior are quantitated to assess the antidepressant activity.
Sprague-Dawley rats are fed diet supplemented with Li-DHA-lysoPC, lithium carbonate, or DHA. […] Various established parameters of antidepressant activity including reduced immobility time, increased swimming, and increased climbing behavior are quantitated to assess the antidepressant activity.
Sprague-Dawley rats are fed diet supplemented with Li-EPA, lithium carbonate, or EPA. […] Various established parameters of antidepressant activity including reduced immobility time, increased swimming, and increased climbing behavior are quantitated to assess the antidepressant activity.

[2] = system: C57BL/6J mice; test: d-amphetamine induced hyperlocomotion, acute injection; type: in vivo; conditions: injected 15.5 mg/Kg elemental lithium fifteen minutes after d-amphetamine (0.5 mg/Kg), observed 120 minutes, compared with the fatty acid alone or lithium chloride
Protocol: C57BL/6J mice are injected with d-amphetamine (0.5 mg/Kg) and increased locomotion is measured. Fifteen minutes later, Li-DHA, or lithium chloride dose is injected to deliver 15.5 mg/Kg elemental lithium. […] Subsequently, the mice are observed for hyperlocomotion for the next 120 minutes using automated video recording device.
C57BL/6J mice are injected with d-amphetamine (0.5 mg/Kg) and increased locomotion is measured. Fifteen minutes later, Li-DHA-lysoPC, or lithium chloride dose is injected to deliver 15.5 mg/Kg elemental lithium. […] Subsequently, the mice are observed for hyperlocomotion for the next 120 minutes using automated video recording device.
C57BL/6J mice are injected with d-amphetamine (0.5 mg/Kg) and increased locomotion is measured. Fifteen minutes later, Li-EPA, or lithium chloride dose is injected to deliver 15.5 mg/Kg elemental lithium. […] Subsequently, the mice are observed for hyperlocomotion for the next 120 minutes using automated video recording device.

[3] = system: C57BL/6J mice; test: d-amphetamine induced hyperlocomotion, supplemented diet; type: in vivo; conditions: about 15.5 mg/Kg/day elemental lithium, 0.5 mg/Kg d-amphetamine on days 0, 7, 14, 21, compared with the fatty acid alone or lithium chloride
Protocol: C57BL/6J mice are fed diet supplemented with Li-DHA, lithium chloride, or DHA. On Li-DHA or lithium chloride supplemented diet, mice consume, on an average, about 15.5 mg/Kg/day of elemental lithium, on a feeding schedule so as to maintain 85% of its free-feeding weight. […] On 0, 7, 14, and 21 days of starting the supplement diet, mice are injected with 0.5 mg/Kg d-amphetamine and observed for hyperlocomotion using automated video recording device.
C57BL/6J mice are fed diet supplemented with Li-DHA-lysoPC, lithium chloride, or DHA-lysoPC. On Li-DHA-lysoPC or lithium chloride supplemented diet, mice consume, on an average, about 15.5 mg/Kg/day of elemental lithium, on a feeding schedule so as to maintain 85% of its free-feeding weight. […] On 0, 7, 14, and 21 days of starting the supplement diet, mice are injected with 0.5 mg/Kg d-amphetamine and observed for hyperlocomotion using automated video recording device.
C57BL/6J mice are fed diet supplemented with Li-EPA, lithium chloride, or EPA. On Li-EPA or lithium chloride supplemented diet, mice consume, on an average, about 15.5 mg/Kg/day of elemental lithium, on a feeding schedule so as to maintain 85% of its free-feeding weight. […] On 0, 7, 14, and 21 days of starting the supplement diet, mice are injected with 0.5 mg/Kg d-amphetamine and observed for hyperlocomotion using automated video recording device.

[4] = system: Patients presenting symptoms of bipolar disorder; test: Hamilton Depression Rating scale, Beck Depression Inventory and Young Mania Rating Scale in bipolar disorder; type: in vivo, human; conditions: 113 mg elemental Li 3 to 4 times a day for two weeks, with standard of care, compared with lithium carbonate or the fatty acid alone
[5] = system: Patients presenting symptoms of depression; test: Hamilton Depression Rating scale and Beck Depression Inventory in depression; type: in vivo, human; conditions: 113 mg elemental Li 3 to 4 times a day for two weeks, with standard of care, compared with lithium carbonate or the fatty acid alone
Protocol: Patients presenting symptoms of depression, in addition to being provided standard of care for depression, are prescribed Mg-DHA or Mg Citrate capsules formulated to provide 150 mg of elemental magnesium, or DHA capsules for two weeks when recovery from depression is assessed.
Patients presenting symptoms of depression, in addition to being provided standard of care for depression, are prescribed Mg-DHA-LysoPC or Mg Citrate capsules formulated to provide 150 mg of elemental magnesium, or DHA-LysoPC capsules for two weeks when recovery from depression is assessed.
Patients presenting symptoms of depression, in addition to being provided standard of care for depression, are prescribed Mg-EPA or Mg Citrate capsules formulated to provide 150 mg of elemental magnesium, or EPA capsules for two weeks when recovery from depression is assessed.
(§2) Patients presenting symptoms of depression, in addition to being provided standard of care for depression, are prescribed Zn-DHA or zinc gluconate capsules formulated to provide a daily dosage of 30 mg of elemental zinc, or DHA capsules for two weeks when recovery from depression is assessed.
as §2, with “Zn-DHA-LysoPC” for “Zn-DHA”, “DHA-LysoPC” for “DHA”
Patients presenting symptoms of depression, in addition to being provided standard of care for depression, are prescribed Zn-EPA or zinc gluconate capsules that provide a daily dosage of 30 mg of elemental Zn, or EPA capsules for two weeks when recovery from depression is assessed.

[6] = Li levels in cerebrospinal fluid of rats fed Li compositions; type: in vivo, Sprague-Dawley rats; conditions: oral gavage, about 20 mg elemental Li per Kg per day for 3 weeks, compared with lithium carbonate
Protocol: Sprague-Dawley rats are fed various […] compositions by oral gavage so as to provide about 20 mg of elemental Li per Kg per day for 3 weeks. The lithium compositions include Li-DHA, Li-DHA-LysoPC and Li-EPA. Control rats were administered equivalent molar amount of Lithium carbonate. Cerebrospinal fluid is collected at the end of the treatment, and lithium is measured by atomic absorption spectroscopy.

[7] = intravenous infusion for 5 days; cited from earlier work

| Structure (SMILES) | immobility time [1] | swimming and climbing behavior [1] | induced hyperlocomotion [2] | induced hyperlocomotion [3] | Hamilton Depression Rating scale, Beck Depression Inventory and Young Mania Rating Scale scores [4] | Hamilton Depression Rating scale and Beck Depression Inventory scores [5] | CSF levels of lithium [6] | Mg levels in the brain [7] | increase of blood levels of magnesium [7] [fold] |
| --- | --- | --- | --- | --- | --- | --- | --- | --- | --- |
| CC/C=C\C/C=C\C/C=C\C/C=C\C/C=C\CCCC(=O)[O-].[Li+] [Li-EPA] | reduction | significant increase | lower levels | lower levels | statistically significant improvement | statistically significant improvement | higher |  |  |
| O=S(=O)([O-])[O-].[Mg+2] [magnesium sulfate] |  |  |  |  |  |  |  | failed to increase | 3 |
| CC/C=C\C/C=C\C/C=C\C/C=C\C/C=C\C/C=C\CCC(=O)[O-].[Li+] [Li-DHA] | reduction | significant increase | lower levels | lower levels | statistically significant improvement | statistically significant improvement | higher |  |  |
